# Experimental data taken from patent publication US11104661B1, “Inhibiting human integrin (α-4) (β-7)” (Morphic Therapeutic, Inc., priority 2019, dated 2021).
# Read-outs that look alike come from different tables or passages of the source.
# Target: T1, α4β7 (Homo sapiens, UniProt P13612+P26010)
# T1 construct: endogenous in cells; host or cells: RPMI 8866 cells
# T1 sequence (P13612 34-1032): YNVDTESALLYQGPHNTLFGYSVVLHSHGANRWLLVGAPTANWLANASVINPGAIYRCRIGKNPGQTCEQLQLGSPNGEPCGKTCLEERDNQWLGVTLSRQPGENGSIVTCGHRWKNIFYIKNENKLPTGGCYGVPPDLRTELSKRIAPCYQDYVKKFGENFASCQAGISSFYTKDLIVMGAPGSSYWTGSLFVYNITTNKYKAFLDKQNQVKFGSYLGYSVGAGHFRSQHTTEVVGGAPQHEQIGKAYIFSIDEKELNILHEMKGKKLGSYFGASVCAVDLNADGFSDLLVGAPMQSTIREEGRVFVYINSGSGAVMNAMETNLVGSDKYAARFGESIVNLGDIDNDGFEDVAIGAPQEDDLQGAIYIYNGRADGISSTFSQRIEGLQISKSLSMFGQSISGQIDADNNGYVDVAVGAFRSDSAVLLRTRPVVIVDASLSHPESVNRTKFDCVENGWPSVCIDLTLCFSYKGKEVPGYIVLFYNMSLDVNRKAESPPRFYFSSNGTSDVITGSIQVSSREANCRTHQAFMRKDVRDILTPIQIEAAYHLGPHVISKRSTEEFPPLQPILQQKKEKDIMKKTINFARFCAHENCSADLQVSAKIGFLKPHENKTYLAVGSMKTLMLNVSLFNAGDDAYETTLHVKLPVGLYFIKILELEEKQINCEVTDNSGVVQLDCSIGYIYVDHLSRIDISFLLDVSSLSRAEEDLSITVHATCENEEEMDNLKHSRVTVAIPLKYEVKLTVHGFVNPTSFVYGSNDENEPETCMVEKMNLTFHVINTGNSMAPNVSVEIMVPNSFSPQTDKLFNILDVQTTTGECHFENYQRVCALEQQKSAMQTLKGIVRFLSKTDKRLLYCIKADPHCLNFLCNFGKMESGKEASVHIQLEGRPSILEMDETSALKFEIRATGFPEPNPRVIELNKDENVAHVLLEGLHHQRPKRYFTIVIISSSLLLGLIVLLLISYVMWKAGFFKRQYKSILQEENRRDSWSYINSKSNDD
# T1 sequence (P26010 20-798): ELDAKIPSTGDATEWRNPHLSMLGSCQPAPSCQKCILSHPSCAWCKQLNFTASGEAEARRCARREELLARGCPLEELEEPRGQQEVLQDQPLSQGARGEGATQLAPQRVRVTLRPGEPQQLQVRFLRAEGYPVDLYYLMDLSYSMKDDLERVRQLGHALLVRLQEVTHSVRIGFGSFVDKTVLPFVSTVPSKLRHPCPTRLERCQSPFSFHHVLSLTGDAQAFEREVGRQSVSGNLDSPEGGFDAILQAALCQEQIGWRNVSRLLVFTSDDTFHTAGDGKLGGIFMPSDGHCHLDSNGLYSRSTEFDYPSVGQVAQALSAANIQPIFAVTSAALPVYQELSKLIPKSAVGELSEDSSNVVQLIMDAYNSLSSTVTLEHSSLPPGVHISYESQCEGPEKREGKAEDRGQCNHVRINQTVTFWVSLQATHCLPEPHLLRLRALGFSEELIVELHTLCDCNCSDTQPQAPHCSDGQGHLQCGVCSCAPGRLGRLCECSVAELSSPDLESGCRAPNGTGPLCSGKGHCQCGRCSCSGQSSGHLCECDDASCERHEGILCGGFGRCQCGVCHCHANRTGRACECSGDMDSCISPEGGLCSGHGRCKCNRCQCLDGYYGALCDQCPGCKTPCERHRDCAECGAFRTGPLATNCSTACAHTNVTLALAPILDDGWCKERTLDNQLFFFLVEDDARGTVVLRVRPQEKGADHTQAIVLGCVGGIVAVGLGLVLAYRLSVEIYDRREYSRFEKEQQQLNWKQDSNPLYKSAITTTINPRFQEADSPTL
# Assay: Cell-based MAdCAM-1 ligand binding assay (LBA) on RPMI 8866 cells (Example 6)
# Settings: MAdCAM-1-Fc Dylight 650, 3 mM manganese chloride, flow cytometry
# Description: Compounds of Formula (I) were further evaluated using a Ligand binding assay (LBA) to examine compound potency of free ligand binding to receptors expressed on cells. The MAdCAM ligand binding assay uses flow cytometry to measure the binding of fluorescently-labeled MAdCAM-1-Fc to RPMI 8866 cells in the presence of Mn++. This assay assesses the binding of compounds to native full-length receptors on the cell surface. […] Ligand binding assays (LBA) are used to examine compound potency and selectivity of free ligand binding to receptors expressed on cells.
# Three in vitro assays were used to examine the α4β7 mechanistic process used by cells: 1) ligand:receptor affinity, 2) the avidity of those interactions on a cell's surface, and 3) how those interactions fare under an imposing force. In Example 5, a Fluorescence Polarization (FP) assay is used to measure compound activity through binding competition with the fluorescein-labeled peptide. In Example 6, the potency of compounds against α4β7 is measured in the cell-based ligand binding assay (LBA), using RPMI 8866 cells incubated with the compound samples in competition with soluble MAdCAM-1 ligand. In Example 7, activity of compounds is evaluated in a cell adhesion assay that mechanistically tests what occurs in vivo when trafficking cells utilize α4β7 to adhere to MAdCAM-1 expressing HEVs of the gut during the extravasation process. In the cell adhesion assay of Example 7, a MAdCAMI1-(Fc) is coated on plastic, and α4β7 expressing cells (RPMI-8866) are allowed to adhere to the coated surface in the presence of the test compounds. Next, the force of washing with buffer is applied to cells thereby testing the strength of that adhesion. Unattached cells are removed and the remaining adherent cells are quantified.
# 5 ul of 33 nM MAdCAM-1-Fc fluorescently labeled with Dylight 650 in 50 mM HEPES pH 7.3, 150 mM sodium chloride, and 1% bovine serum albumin was added to the cells. The samples were incubated for 45 minutes at room temperature, fixed with 0.8% formaldehyde for 30 minutes at room temperature, and washed with 50 mM Tris pH 7.5, 150 mM NaCl, 1 mM EDTA, and 1% bovine serum albumin. Fluorescence intensity for each cell was measured via flow cytometry. Dead cells were excluded from further analysis based on staining with the 780 fixable viability dye. Median fluorescence intensity for Dylight 650 was determined for each sample and concentration-response curves were analyzed for IC50 values using 4-parameter non-linear regression analysis.
# [1] = Table 4 comparative compounds, read-out: LB Assay (Example 6)
# [2] = Table 3, read-out: LB Assay (Example 6)
Compound,IC50 [1] [nM],IC50 [2] [nM]
Cc1cccc(C)c1-c1cccc([C@H](CC(=O)O)NC(=O)[C@H](CC(C)C)n2cc(CCN(C)C)ccc2=O)c1,< 10,–
Cc1cccc(C)c1-c1cccc([C@H](CC(=O)O)NC(=O)[C@H](CC(C)C)n2ccc(CCN(C)C)cc2=O)c1,< 10,–
Cc1cccc(C)c1-c1cccc([C@H](CC(=O)O)NC(=O)[C@H](CC(C)C)n2cccc(CCN(C)C)c2=O)c1,10 to 500,–
CC(C)C[C@@H](C(=O)N[C@@H](CC(=O)O)c1ccc(-c2ccc(F)cc2)cc1)n1cc(CCN(C)C)c(C(F)(F)F)cc1=O,10 to 500,–
CC(C)C[C@@H](C(=O)N[C@@H](CC(=O)O)c1ccc(-c2ccc(F)cc2)cc1)n1cc(CCN2CC(F)C2)cc(F)c1=O,10 to 500,–
CC(C)C[C@@H](C(=O)N[C@@H](CC(=O)O)c1ccc(-c2ccccc2)cc1)n1cc(CCN2CC(F)C2)cc(F)c1=O,10 to 500,–
Cc1ccccc1-c1cccc([C@H](CC(=O)O)NC(=O)[C@H](CC(C)C)n2cccc(C)c2=O)c1,10 to 500,–
CC(C)C[C@@H](C(=O)N[C@@H](CC(=O)O)c1ccc(-c2ccccc2)cc1)n1cc(CCN(C)C)c(C(F)(F)F)cc1=O,10 to 500,–
"Cc1cc(-c2c(C)ccc(F)c2C)cc([C@H](CC(=O)O)NC(=O)C(CC(C)C)n2cc(CCN3CCC3)c(C(F)(F)F)cc2=O)c1F (single isomer, unassigned) [AF-P2]",–,< 10
"COc1ccc(C)c(-c2cc(C)c(F)c([C@H](CC(=O)O)NC(=O)C(CC(C)C)n3cc(CCN4CCC4)c(C(F)(F)F)cc3=O)c2)c1C (single isomer, unassigned) [AG-P2]",–,< 10
"Cc1cc(-c2c(C)cccc2C)cc([C@H](CC(=O)O)NC(=O)C(CC(C)C)n2cc(CCN3CC[C@@H](F)C3)cc(F)c2=O)c1F (single isomer, unassigned) [AU-P2]",–,< 10
Cc1cccc(C)c1-c1cccc([C@H](CC(=O)O)NC(=O)[C@H](CC(C)C)n2cc(CN3CC(F)C3)ccc2=O)c1 [drawing 572],< 10,–
Cc1cccc(C)c1-c1cccc([C@H](CC(=O)O)NC(=O)[C@H](CC(C)C)n2cc(CN3CC(F)C3)ccc2=O)c1 [drawing 577],< 10,–

# Now from value to molecule:
IC50 [1] [nM],IC50 [2] [nM],Compound
< 10,–,Cc1cccc(C)c1-c1cccc([C@H](CC(=O)O)NC(=O)[C@H](CC(C)C)n2cc(CN3CC[C@@H](F)C3)ccc2=O)c1
< 10,–,Cc1cccc(C)c1-c1cncc([C@H](CC(=O)O)NC(=O)[C@H](CC(C)C)n2ccc(C(F)(F)F)cc2=O)c1
< 10,–,Cc1ccn([C@@H](CC(C)C)C(=O)N[C@@H](CC(=O)O)c2cncc(-c3c(C)cccc3C)c2)c(=O)c1
< 10,–,Cc1cccc(C)c1-c1cncc([C@H](CC(=O)O)NC(=O)[C@H](CC(C)C)n2cc(CN3CC(F)C3)ccc2=O)c1
10 to 500,–,Cc1cccc(C)c1-c1cncc([C@H](CC(=O)O)NC(=O)[C@H](CC(C)C)N2CC[C@@H](C(F)(F)F)CC2=O)c1
10 to 500,–,Cc1ccc([C@@H](C(=O)N[C@@H](CC(=O)O)c2cncc(-c3c(C)cccc3C)c2)N2CC(C)CCC2=O)cc1 (stereo partly shown)
10 to 500,–,COC[C@@H](C(=O)N[C@@H](CC(=O)O)c1cccc(-c2c(C)cccc2C)c1)n1ccc(C)cc1=O
< 10,–,Cc1cccc(C)c1-c1cccc([C@H](CC(=O)O)NC(=O)[C@H](CC(C)C)n2cc(CN3CC(F)C3)ccc2=O)c1 [drawing 585]
< 10,–,Cc1cccc(C)c1-c1cccc([C@H](CC(=O)O)NC(=O)[C@H](CC(C)C)n2cc(CN3CC(F)C3)ccc2=O)c1 [drawing 589]
< 10,–,Cc1cccc(C)c1-c1cccc([C@H](CC(=O)O)NC(=O)[C@H](CC(C)C)n2cc(CN3CC(F)C3)ccc2=O)c1 [drawing 594]
< 10,–,Cc1cccc(C)c1-c1cccc([C@H](CC(=O)O)NC(=O)[C@H](CC(C)C)n2cc(CN3CC(F)C3)ccc2=O)c1 [drawing 599]
< 10,–,Cc1cccc(C)c1-c1cccc([C@H](CC(=O)O)NC(=O)[C@H](CC(C)C)n2cc(CN3CC(F)C3)ccc2=O)c1 [drawing 604]
